Assay results as given in patent publication US4068074A, “Cephalosporin derivatives having at the 3-position of the cephem ring a heterocyclic thiomethyl group with a carboxy or sulfo group and at the 7-position of the cephem ring an α-heterocylic acylaminophenyl-acetamide group” (priority 1974, dated 1978).
In brackets after ≈: the same amount, converted by molar mass. Where two headings read alike, the source gives them in different places.

Tests used:
Assay type in all cases: cell-based
[1] = tested on: Pseudomonas aeruginosa 99 (Gentamycin resistant); experiment: MIC against bacteria (Table I), strain (5)
Text: (§1) Now, for illustrating the excellent pharmacological effects of the compounds of this invention, the values of MIC (γ/ml.) of the compounds against various bacteria are shown in Table 1, in which the compounds of this invention used are shown by example numbers.
(5) Pseudomonas aeruginosa 99 (Gentamycin resistant)

[2] = tested on: Shigella flexneri 2a 1675; experiment: MIC against bacteria (Table I), strain (11); settings: 2A1675
Text: as §1

[3] = tested on: Pseudomonas aeruginosa ATCC 8689; experiment: MIC against bacteria (Table I), strain (4); settings: ATCC8689; (4) Pseudomonas aeruginosa ATCC 8689; read-out: MIC
Text: as §1
(4) Pseudomonas aeruginosa ATCC 8689

[4] = tested on: Salmonella enteritidis; experiment: MIC against bacteria (Table I), strain (10); settings: Salmonella enterica
Text: as §1
(10) Salmonella enteritidis

[5] = tested on: Psuedomonas ovalis IMA 1002; experiment: MIC against bacteria (Table I), strain (6); settings: (6) Psuedomonas ovalis IMA 1002; read-out: MIC
Text: as §1
(6) Psuedomonas ovalis IMA 1002

[6] = tested on: Bacillus megatherium 10778; experiment: MIC against bacteria (Table I), strain (13)
Text: as §1

[7] = tested on: Bacillus subtilis ATCC 6633; experiment: MIC against bacteria (Table I), strain (14); settings: ATCC6633
Text: as §1
(14) Bacillus subtilis ATCC 6633

[8] = tested on: Escherichia coli kauffmann 0-1; experiment: MIC against bacteria (Table I), strain (7); settings: Escherichia coli
Text: as §1
(7) Escherichia coli kauffmann 0-1

[9] = tested on: Micrococcus flavus ATCC 10240; experiment: MIC against bacteria (Table I), strain (15); settings: ATCC10240
Text: as §1
(15) Micrococcus flavus ATCC 10240

[10] = tested on: Staphylococcus Onuma; experiment: MIC against bacteria (Table I), strain (18); settings: (18) Staphylococcus Onuma; read-out: MIC
Text: as §1
(18) Staphylococcus Onuma

[11] = tested on: Proteus mirabilis IXM OM-19; experiment: MIC against bacteria (Table I), strain (3); settings: IXMOM19
Text: as §1
(3) Proteus mirabilis IXM OM-19

[12] = tested on: Klebsiella pneumoniae ATCC 10031; experiment: MIC against bacteria (Table I), strain (8); settings: ATCC10031
Text: as §1
(8) Klebsiella pneumoniae ATCC 10031

[13] = tested on: Staphylococcus aureus 209P; experiment: MIC against bacteria (Table I), strain (16)
Text: as §1
(16) Staphylococcus aureus 209P

[14] = tested on: Shigella sonnei II 37148; experiment: MIC against bacteria (Table I), strain (12); settings: II37148
Text: as §1

[15] = tested on: Salmonella typhi H901 W; experiment: MIC against bacteria (Table I), strain (9); settings: Salmonella enterica, TYPHI
Text: as §1
(9) Salmonella typhi H901 W

[16] = tested on: Proteus vulgaris 0X 19US; experiment: MIC against bacteria (Table I), strain (2); settings: 0X19US
Text: as §1
(2) Proteus vulgaris 0X 19US

[17] = tested on: Proteus vulgaris OXK US; experiment: MIC against bacteria (Table I), strain (1); settings: (1) Proteus vulgaris OXK US; read-out: MIC
Text: as §1
(1) Proteus vulgaris OXK US

[18] = tested on: Staphylococcus Shimanishi; experiment: MIC against bacteria (Table I), strain (17)
Text: as §1
(17) Staphylococcus Shimanishi

[19] = (5) Pseudomonas aeruginosa 99 (Gentamycin resistant), read-out: MIC
[20] = (11) Shigella flexneri 2a 1675, read-out: MIC
[21] = (8) Klebsiella pneumoniae ATCC 10031, read-out: MIC
[22] = (12) Shigella sonnei II 37148, read-out: MIC
[23] = (10) Salmonella enteritidis, read-out: MIC
[24] = (13) Bacillus megatherium 10778, read-out: MIC
[25] = (14) Bacillus subtilis ATCC 6633, read-out: MIC
[26] = (15) Micrococcus flavus ATCC 10240, read-out: MIC
[27] = (3) Proteus mirabilis IXM OM-19, read-out: MIC
[28] = (17) Staphylococcus Shimanishi, read-out: MIC
[29] = (16) Staphylococcus aureus 209P, read-out: MIC
[30] = (2) Proteus vulgaris 0X 19US, read-out: MIC

Compound	MIC [1, 19]	MIC [2, 20]	MIC [3]	MIC [5]	MIC [8]	MIC ([9]; Micrococcus flavus)	MIC [10]	MIC [12, 21]	MIC ([13]; Staphylococcus aureus, 209P)	MIC [14, 22]	MIC [15]	MIC ([16]; Proteus vulgaris)	MIC [17]	MIC [4, 23]	MIC [6, 24]	MIC [7, 25]	MIC [9, 26]	MIC [11, 27]	MIC [18, 28]	MIC [16, 30]	also measured
O=C(O)Cc1nnc(SCC2=C(C(=O)O)N3C(=O)[C@@H](NC(=O)[C@H](NC(=O)c4csccc4=O)c4ccc(O)cc4)[C@H]3SC2)s1 [Example 32, 7-[D-α-(4-thiopyrone-3-carboxamido)-α-p-hydroxyphenylacetamido]-3-[5-carboxymethyl-1,3,4-thiadiazol-2-yl]thiomethyl-Δ^3-cephem-4-carboxylic acid]	25 µg/mL (≈ 37 µM)	0.78 µg/mL (≈ 1.15 µM)	50 µg/mL (≈ 74 µM)	50 µg/mL (≈ 74 µM)	3.13 µg/mL (≈ 4.63 µM)	3.13 µg/mL (≈ 4.63 µM)	6.25 µg/mL (≈ 9.25 µM)	6.25 µg/mL (≈ 9.25 µM)	1.56 µg/mL (≈ 2.31 µM)	3.13 µg/mL (≈ 4.63 µM)	1.56 µg/mL (≈ 2.31 µM)	3.13 µg/mL (≈ 4.63 µM)	< 0.09 µg/mL								MIC ([4]; ENTERITIDIS): 1.56 µg/mL (≈ 2.31 µM); MIC ([6]; Bacillus, 10778): 0.78 µg/mL (≈ 1.15 µM); MIC ([7]; Bacillus subtilis): 0.78 µg/mL (≈ 1.15 µM); MIC ([11]; Proteus mirabilis): 0.78 µg/mL (≈ 1.15 µM); MIC ([18]; Staphylococcus): 3.13 µg/mL (≈ 4.63 µM)
CC(C)(Sc1nnc(SCC2=C(C(=O)O)N3C(=O)[C@@H](NC(=O)[C@H](NC(=O)c4cnccc4O)c4ccccc4)[C@H]3SC2)s1)C(=O)O [Example 22, 7-[D-α-(4-hydroxynicotinoylamido)-α-phenylacetamido]-3-[5-(1-carboxy-1-methylethylthio)-1,3,4-thiadiazol-2-yl]thiomethyl-Δ^3-cephem-4-carboxylic acid]	6.25 µg/mL (≈ 8.89 µM)	1.56 µg/mL (≈ 2.22 µM)	12.5 µg/mL (≈ 17.8 µM)	12.5 µg/mL (≈ 17.8 µM)	3.13 µg/mL (≈ 4.45 µM)		12.5 µg/mL (≈ 17.8 µM)	6.25 µg/mL (≈ 8.89 µM)	1.56 µg/mL (≈ 2.22 µM)	3.13 µg/mL (≈ 4.45 µM)	3.13 µg/mL (≈ 4.45 µM)	1.56 µg/mL (≈ 2.22 µM)	0.19 µg/mL (≈ 0.27 µM)	0.78 µg/mL (≈ 1.11 µM)	0.39 µg/mL (≈ 0.555 µM)	0.78 µg/mL (≈ 1.11 µM)	6.25 µg/mL (≈ 8.89 µM)	0.39 µg/mL (≈ 0.555 µM)	12.5 µg/mL (≈ 17.8 µM)		
O=C(O)CSc1nnc(SCC2=C(C(=O)O)N3C(=O)[C@@H](NC(=O)[C@H](NC(=O)c4csccc4=O)c4ccccc4)[C@H]3SC2)s1 [Example 10]	50 µg/mL (≈ 72.3 µM)		25 µg/mL (≈ 36.1 µM)	50 µg/mL (≈ 72.3 µM)	6.25 µg/mL (≈ 9.03 µM)		3.13 µg/mL (≈ 4.52 µM)	3.13 µg/mL (≈ 4.52 µM)			1.56 µg/mL (≈ 2.25 µM)		< 0.09 µg/mL	0.19 µg/mL (≈ 0.275 µM)	0.39 µg/mL (≈ 0.564 µM)	0.19 µg/mL (≈ 0.275 µM)	3.13 µg/mL (≈ 4.52 µM)	0.39 µg/mL (≈ 0.564 µM)	3.13 µg/mL (≈ 4.52 µM)	< 0.09 µg/mL	MIC ([2]; Shigella flexneri): 1.56 µg/mL (≈ 2.25 µM); MIC [13, 29]: 0.39 µg/mL (≈ 0.564 µM); MIC ([14]; Shigella sonnei): 6.25 µg/mL (≈ 9.03 µM)
CC(=O)OCC1=C(C(=O)O)N2C(=O)[C@@H](NC(=O)[C@H](N)c3ccccc3)[C@H]2SC1 [Cephaloglycin, reference compound]		3 µg/mL (≈ 7.4 µM)	> 100 µg/mL	> 100 µg/mL	100 µg/mL (≈ 247 µM)		3 µg/mL (≈ 7.4 µM)	25 µg/mL (≈ 61.7 µM)		10 µg/mL (≈ 24.7 µM)	3 µg/mL (≈ 7.4 µM)		25 µg/mL (≈ 61.7 µM)	3 µg/mL (≈ 7.4 µM)	1 µg/mL (≈ 2.47 µM)	0.3 µg/mL (≈ 0.74 µM)	0.3 µg/mL (≈ 0.74 µM)	100 µg/mL (≈ 247 µM)	3 µg/mL (≈ 7.4 µM)	100 µg/mL (≈ 247 µM)	MIC ([1]; Pseudomonas aeruginosa): > 100 µg/mL; MIC [13, 29]: 1 µg/mL (≈ 2.47 µM)
Nn1c(SCC(=O)O)nnc1SCC1=C(C(=O)O)N2C(=O)[C@@H](NC(=O)[C@H](NC(=O)c3cnccc3O)c3ccccc3)[C@H]2SC1 [Example 30, 7-[D-α-(4-hydroxynicotinoylamido)-α-phenylacetamido]-3-(1-amino-5-carboxymethylthio-1,3,4-triazol-2-yl)thiomethyl-Δ^3-cephem-4-carboxylic acid]		6.25 µg/mL (≈ 9.29 µM)	25 µg/mL (≈ 37.2 µM)	25 µg/mL (≈ 37.2 µM)	6.25 µg/mL (≈ 9.29 µM)	12.5 µg/mL (≈ 18.6 µM)	25 µg/mL (≈ 37.2 µM)		1.56 µg/mL (≈ 2.32 µM)	12.5 µg/mL (≈ 18.6 µM)	6.25 µg/mL (≈ 9.29 µM)		< 0.09 µg/mL	1.56 µg/mL (≈ 2.32 µM)	0.78 µg/mL (≈ 1.16 µM)	0.78 µg/mL (≈ 1.16 µM)		0.78 µg/mL (≈ 1.16 µM)		0.78 µg/mL (≈ 1.16 µM)	MIC ([1]; Pseudomonas aeruginosa): 12.5 µg/mL (≈ 18.6 µM); MIC ([12]; Klebsiella pneumoniae): 12.5 µg/mL (≈ 18.6 µM); MIC ([18]; Staphylococcus): 12.5 µg/mL (≈ 18.6 µM)
